# Measured values taken from ChEMBL document CHEMBL1142550, “Thiopyrano[2,3-e]indol-2-ones: angelicin heteroanalogues with potent photoantiproliferative activity” (Bioorg Med Chem, 2008).
# What was measured:
# Assay type in all cases: functional, cell-based
# HL-60 [1] = assay: Photocytotoxicity against human HL-60 cells treated 30 mins before 2.5 J/cm'2 UVA irradiation measured after 72 hrs by MTT assay; conditions: HL-60, light or radiation study
# HL-60 [2] = assay: Photocytotoxicity against human HL-60 cells treated 30 mins before 3.75 J/cm'2 UVA irradiation measured after 72 hrs by MTT assay; conditions: HL-60, light or radiation study
# Jurkat [3] = assay: Photocytotoxicity against human JURKAT cells treated 30 mins before 2.5 J/cm'2 UVA irradiation measured after 72 hrs by MTT assay; conditions: light or radiation study
# Jurkat [4] = assay: Photocytotoxicity against human JURKAT cells treated 30 mins before 3.75 J/cm'2 UVA irradiation measured after 72 hrs by MTT assay; conditions: light or radiation study
# HT-1080 [5] = assay: Photocytotoxicity against human HT1080 cells treated 30 mins before 2.5 J/cm'2 UVA irradiation measured after 72 hrs by MTT assay; conditions: HT-1080, light or radiation study
# HT-1080 [6] = assay: Photocytotoxicity against human HT1080 cells treated 30 mins before 3.75 J/cm'2 UVA irradiation measured after 72 hrs by MTT assay; conditions: HT-1080, light or radiation study
# LoVo [7] = assay: Photocytotoxicity against human LoVo cells treated 30 mins before 2.5 J/cm'2 UVA irradiation measured after 72 hrs by MTT assay; conditions: light or radiation study
# LoVo [8] = assay: Photocytotoxicity against human LoVo cells treated 30 mins before 3.75 J/cm'2 UVA irradiation measured after 72 hrs by MTT assay; conditions: light or radiation study
# [9] = Photocytotoxicity against human NCTC 2544 cells treated 30 mins before 2.5 J/cm'2 UVA irradiation measured after 72 hrs by MTT assay; conditions: NCTC-2544, light or radiation study
# [10] = Photocytotoxicity against human NCTC 2544 cells treated 30 mins before 3.75 J/cm'2 UVA irradiation measured after 72 hrs by MTT assay; conditions: NCTC-2544, light or radiation study
Compound,IC50 (HL-60 [1]) [µM],IC50 (HL-60 [2]) [µM],IC50 (Jurkat [3]) [µM],IC50 (Jurkat [4]) [µM],IC50 (HT-1080 [5]) [µM],IC50 (HT-1080 [6]) [µM],IC50 (LoVo [7]) [µM],IC50 (LoVo [8]) [µM],IC50 [9] [µM],IC50 [10] [µM]
Cc1cc2c3sc(=O)ccc3ccc2n1-c1ccccc1,2.6,1.3,2.5,3.5,5.4,2,5.1,4.2,17,14.8
Cc1cc2c(n1-c1ccccc1)CCc1ccc(=O)sc1-2,6.2,2.7,4.2,3.5,11,10.5,> 20,12.3,> 20,> 20
Cc1cc2c(n1S(=O)(=O)c1ccccc1)CCc1ccc(=O)sc1-2,> 10,> 10,7.3,5,> 20,> 20,> 20,> 20,> 20,> 20
Cc1cc2c(n1C)CCc1ccc(=O)sc1-2,> 10,> 10,> 10,> 10,> 20,> 20,> 20,> 20,> 20,> 20
